Our source for the IC50 values is patent US20170280720A1, “ARGININE […] INHIBITORS AND USES THEREOF” (EPIZYME, INC., priority 2014, published 2017).

As a reminder, the pIC50 is the negative decadic logarithm of the IC50, by convention in mol/L.

pIC50: −log10 of the molar value.

The test deals with asymmetric di-methyl PABP1 in RKO cells. As to the kind of experiment: In Cell Western (ICW) for asymmetric di-methyl PABP1 and DNA content in RKO cells. The class given is cell-based. The following applies: Homo sapiens, RKO, In Cell Western. Summed up: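 RKO cells treated with compound for 48 h at 37 °C, then fixed, methanol-permeabilized and stained for asymmetric di-methyl PABP1 (800 nm) with DRAQ5 DNA stain (700 nm). Signal ratio normalized to DMSO and 20 μM reference-compound controls. IC50 from nine 3-fold dilutions in triplicate.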
`CNCCN(C)Cc1cccc(-c2cc(C(=O)NCC3CCOCC3)c3cnn(C4CC4)c3n2)c1` [Compound 26] showed a pIC50 of 5.67.

With `CNCCN(C)Cc1cc(-c2cc(C(=O)NC3CCOCC3)c3cnn(C(C)C)c3n2)ccc1F` [Compound 130], the pIC50 was 4.94.

With `CC(C)n1ncc2c(C(=O)NCc3ccccc3)cc(-c3cccc(CN(C)CCN)c3)cc21` [Compound 14], the negative logarithm of the IC50 (pIC50) is 4.70.

For `CNCCN(C)Cc1cccc(-c2nc(NCc3cc(C)nn3C)c3cnn(C4CC4)c3n2)c1` [Compound 17], the negative logarithm of the IC50 (pIC50) was 4.70.

`CNCCN(C)Cc1cccc(-c2cc(NC3CC3)c3cnn(C(C)C)c3n2)c1` [Compound 11] had a pIC50 of 5.46.

`CNCCN(C)Cc1cccc(-c2cc(NS(=O)(=O)C(F)(F)F)c3cnn(C(C)C)c3n2)c1` [Compound 164] gave a pIC50 of 4.92.

The compound `CC(C)n1ncc2c(C(=O)NC3CCOCC3)cc(-c3cccc(CN(C)CCN)c3)nc21` [Compound 148] had a pIC50 of 6.01.

Compound `CNCCN(C)Cc1cccc(-c2cnc3c(c2)c(Br)nn3CC2CCOCC2)c1` [Compound 39] had a pIC50 of 4.70.

On to `CNCCN(C)Cc1cccc(-c2nc(NC3CCOCC3)c3cnn(C(C)(C)C)c3n2)c1` [Compound 27, N1-(3-(1-tert-butyl-4-(tetrahydro-2H-pyran-4-ylamino)-1H-pyrazolo[3,4-d]pyrimidin-6-yl)benzyl)-N1,N2-dimethylethane-1,2-diamine], for which the negative-log IC50 (pIC50) was 6.41.

On to `CCS(=O)(=O)Nc1cc(-c2cccc(CN(C)CCNC)c2)nc2c1cnn2C(C)C` [Compound 161], for which the pIC50 is 4.95.

`CNCCN(C)Cc1cccc(-c2cc(C(=O)NC3CCOCC3)c3cnn(C4CCC4)c3n2)c1` [Compound 29] showed a negative-log IC50 (pIC50) of 5.28.

The compound `CNCCN(C)Cc1cccc(-c2cc(C(=O)NCc3cnn(C)c3C)c3cnn(C(C)C)c3n2)c1` [Compound 137] had a pIC50 of 5.02.

Turning to `CC(C)n1ncc2c(C(=O)NCC3CCOCC3)cc(-c3cccc(CN(C)CCNC4CC4)c3)nc21` [Compound 167], the pIC50 is 5.29.

`CNCCN(C)Cc1cccc(-c2cc(NC(=O)NC)c3cnn(C(C)C)c3n2)c1` [Compound 138] gave a negative-log IC50 (pIC50) of 5.11.

`CNCCN(C)Cc1cccc(-c2ccc3cn(Cc4ccccc4)nc3n2)c1` [Compound 35] gave a pIC50 of 5.52.

In turn, `CC(C)n1ncc2c(C(=O)N3CCCCC3)cc(-c3cccc(CNCCN)c3)nc21` [Compound 153] had a negative-log IC50 (pIC50) of 4.70.

For the compound `CN(CCN)Cc1cccc(-c2cc(C(=O)NC3CCOCC3)c3cnn(C)c3n2)c1` [Compound 158], the pIC50 was 4.87.

The compound `CN(CCN)Cc1cccc(-c2cc(C(=O)NC3CCOCC3)c3cnn(CC(F)(F)F)c3n2)c1` [Compound 144] gave a negative logarithm of the IC50 (pIC50) of 5.07.

In turn, `CNC(=O)Nc1cc(-c2cccc(CN(C)CCN)c2)nc2c1cnn2C(C)C` [Compound 126] had a negative-log IC50 (pIC50) of 4.97.

Compound `CNCCN(C)Cc1cccc(-c2cc(NS(=O)(=O)N(C)C)c3cnn(C(C)C)c3n2)c1` [Compound 139] had a pIC50 of 5.31.

Regarding `CNCCN(C)Cc1cccc(-c2cc(N)c3cnn(C(C)C)c3n2)c1` [Compound 151], the negative-log IC50 (pIC50) was 4.70.

Regarding `CN(CCN)Cc1cccc(-c2nc(NC3CCOCC3)c3cnn(C(C)(C)C)c3n2)c1` [Compound 18], the negative-log IC50 (pIC50) was 6.35.

In turn, `CCC(=O)c1cc(-c2cccc(CN(C)CCNC)c2)nc2c1cnn2C(C)C` [Compound 128] showed a pIC50 of 4.70.

For the compound `CNCCN(C)Cc1cccc(-c2cc(NS(C)(=O)=O)c3cnn(C(C)C)c3n2)c1` [Compound 169], the negative-log IC50 (pIC50) is 4.87.

Consider `CNCCN(C)Cc1cccc(-c2cc(Nc3ncc(C)s3)c3cnn(C(C)C)c3n2)c1` [Compound 20], for which the pIC50 was 5.48.

In the case of `CNCCN(C)Cc1cccc(-c2cc(C(=O)NCC3CCOCC3)c3cnn(C4CCC4)c3n2)c1` [Compound 21], the pIC50 was 5.13.

Turning to `CC(C)n1ncc2c(N3CCOCC3)cc(-c3cccc(CN(C)CCNC4CC4)c3)nc21` [Compound 163], the negative logarithm of the IC50 (pIC50) was 4.94.

In turn, `CNCCN(C)Cc1cccc(-c2cnc3c(c2)OCC(=O)N3)c1` [Compound 355] showed a pIC50 of 4.89.

`CNCCN(C)Cc1cccc(-c2cc(C(=O)NCc3ccccc3F)c3cnn(C(C)C)c3n2)c1` [Compound 38] gave a pIC50 of 5.39.

Turning to `CC(C)n1ncc2c(NC3CC3)cc(-c3cccc(CN(C)CCN)c3)nc21` [Compound 41], the negative-log IC50 (pIC50) is 5.23.

`CC(C)n1ncc2c(C(=O)NCc3ccccc3F)cc(-c3cccc(CNCCN)c3)nc21` [Compound 159]: the pIC50 was 4.70.

With `CC(C)n1ncc2c(C(=O)N3CCCCC3)cc(-c3cccc(CN(C)CCN)c3)nc21` [Compound 43], the pIC50 is 4.70.

`Cc1nn(C(C)C)c2nc(-c3cccc(CN(C)CCN)c3)cc(N3CCOCC3)c12` [Compound 22, N1-(3-(1-isopropyl-3-methyl-4-morpholino-1H-pyrazolo[3,4-b]pyridin-6-yl)benzyl)-N1-methylethane-1,2-diamine] showed a negative logarithm of the IC50 (pIC50) of 5.51.

Compound `CNCCN(C)Cc1cccc(-c2cc(Oc3ccccc3)c3cnn(C(C)C)c3n2)c1` [Compound 45] showed a negative logarithm of the IC50 (pIC50) of 4.70.

The compound `CNCCN(C)Cc1cccc(-c2cc(NC(=O)NC3CCOCC3)c3cnn(C(C)C)c3n2)c1` [Compound 133] gave a pIC50 of 4.94.

In turn, `CN(CCN)Cc1cccc(-c2cc(C(=O)NC3CCOCC3)c3cnn(C4CC4)c3n2)c1` [Compound 142] showed a negative logarithm of the IC50 (pIC50) of 5.56.
